Molecules are shown by their SMILES. Where two headings read alike, the source gives them in different places.

Series [1] deals with ventricular arrhythmias induced by two-stage ligation of the left anterior descending coronary artery (Harris dog). Description: Antiarrhythmic activity by coronary ligation in the Harris dog model (i.v. infusion). The series is classed as in vivo, dog (adult mongrel). Conditions: Canis lupus familiaris, read-out: Antiarrhythmic ED in Harris Dog. The source says:
The following examples describe the pharmacological evaluation of the compounds made in accordance with the present invention. In particular, these examples describe the evaluation of antiarrhythmic activity by coronary ligation in the well known Harris dog model. Ventricular arrhythmias were induced in adult mongrel dogs (10-15 kg) of either sex by two-stage ligation of the left anterior descending coronary artery. […] The test compound in saline was infused intravenously at a cumulative rate of […] to 1.2 mg/kg/min (base) unitl normal sinus rhythm or toxicity occurred. Normal sinus rhythm was defined as 90-100% normal complexes over a 5 min period.

In series [2] the test system is ventricular arrhythmias induced by ouabain (Ouabain dog). Description: Antiarrhythmic activity in the Ouabain dog model (i.v. infusion). The series is classed as in vivo. Conditions: Canis lupus familiaris, read-out: Antiarrhythmic ED in Ouabain Dog. The procedure: The following examples describe the pharmacological evaluation of the compounds in accordance with the present invention. In particular, these examples describe the evaluation of antiarrhythmic activity in the Oubain dog model. […] The test compound was infused intravenously in saline at a rate of about 0.3 to about 5 mg/kg/min until normal sinus rhythm or toxicity occurred. Normal sinus rhythm was defined as 90-100% normal complexes over a 5 minute period.

Another series concerns Guinea Pig Ileum. Description: In vitro evaluation of anticholinergic activity in the isolated guinea pig ileum. Set-up: species or system guinea pig (male Hartley). Conditions: Cavia porcellus, read-out: Anticholinergic Inhibition of Guinea Pig Ileum (% inhibition at 4 mg/L). How it is done: The following examples describe the in vitro evaluation of anticholinergic activity in the isolated guinea pig ileum. Fasted, male Hartley guinea pigs (300-400 g) were killed by a blow to the head. […] One end of the ileal strip was impaled onto a platinum wire electrode; and the other end was tied to a stationary glass rod. Basal tension was set at 0.1-0.3 g and peak developed tension in response to field stimulation (100-150 V, 10 msec pulse duration, 0.2 Hz) was measured with a tension transducer.

The subject of another series is cardiac cells. Conditions: cited from earlier work.
Another series has as its system patients. Conditions: cited from earlier work.
The mark [3] stands for this setting: Harris dog, IV infusion, ED is the effective dose required to sustain normal sinus rhythm.
The mark [4] stands for this setting: Ouabain dog, IV infusion, ED is the effective dose required to sustain normal sinus rhythm.
Setting [5] is: 4 mg/L, inhibition of field-stimulated contractile tension.
The mark [6] stands for this setting: administered to patients for the management of arrhythmias.

As for `O=C(Nc1cc(CN2CCCC2)c(O)c(CN2CCCC2)c1)c1ccc(C(F)(F)F)cc1` [XIII, N--(4-trifluoromethylbenzoyl)-3,5,-bis(N--pyrrolidinylmethyl)-4-hydroxyaniline], the minimal effective dose was 9 mg/kg in series [1] (setting [3]) and 5.25 mg/kg in series [2] (setting [4]). The inhibition at 4 µg/mL with Guinea Pig Ileum (setting [5]) amounted to 43%.

In the case of `Oc1c(CN2CCCC2)cc(Nc2ncnc3ccccc23)cc1CN1CCCC1` [Changrolin, 4-[3',5'-bis[N-pyrrolidinylmethyl]-4'-hydroxyanilino]quinazoline, reference compound], the minimal effective dose was 10.3 mg/kg in series [1] (setting [3]) and 5.5 mg/kg in series [2] (setting [4]). Also, the inhibition at 4 µg/mL in the series with Guinea Pig Ileum (setting [5]) turned out to be 43%. For the same compound, in the series on cardiac cells, the “anticholinergic activity (in words, background)” value (“anticholinergic activity” below) is given as “substantial anticholinergic activity”. The “adverse side-effects in patients” value in the series with patients (setting [6]) is given as “skin discoloration in some patients”. In addition, the “antiarrhythmic effectiveness (in words, background)” value in the series with patients (human, in vivo) was “effective antiarrhythmic agent”.

In the case of `O=C(c1ccccc1)c1cc(CN2CCCC2)c(O)c(CN2CCCC2)c1` [Example II, 4-hydroxy-3,5-bis(pyrrolidinylmethyl)benzophenone], the minimal effective dose in series [1] (setting [3]) was found to be 11 mg/kg; in series [2] (setting [4]), 1.9 mg/kg. Moreover, the inhibition at 4 µg/mL in the series with Guinea Pig Ileum (setting [5]) stood at 9%.

On to `C=C[C@H]1C[N@@]2CC[C@H]1C[C@@H]2[C@@H](O)c1ccnc2ccc(OC)cc12` (stereo in doubt) [Quinidine, 6-methoxy-α-(5'-vinyl-2-quinuclidinyl)-4-quindinemethanol], for which, in series [1] (setting [3]), the minimal effective dose came out at 10.1 mg/kg. Further, the inhibition at 4 µg/mL in the series on Guinea Pig Ileum (setting [5]) was determined as 62%. In addition, in the series with cardiac cells, the “anticholinergic activity” value is reported as “indirect anticholinergic actions”; the “effect on impulse formation, conduction velocity and refractory period of cardiac cells” value is “depress impulse formation, slow conduction velocity, and increase the duration of the refractory period of cardiac cells”. Besides, the “adverse side-effects in patients” value in the series with patients (human, in vivo) was “cardiotoxicity, diarrhea, nausea, vomiting, fever, hypertension and depression of myocardial contractility”.

With `O=C(Nc1cc(CN2CCCC2)c(O)c(CN2CCCC2)c1)c1ccc(Cl)cc1` [IV, N--(4-chlorobenzoyl)-3,5,-bis(N--pyrrolidinylmethyl)-4-hydroxyaniline], the minimal effective dose in series [1] (setting [3]) is 7 mg/kg; in series [2] (setting [4]) it was 1.5 mg/kg. For the same compound, in the series on Guinea Pig Ileum (setting [5]), the inhibition at 4 µg/mL turned out to be 49%.

Turning to `O=C(Nc1cc(CN2CCCC2)c(O)c(CN2CCCC2)c1)c1ccccc1` [Example III, N-benzoyl-3,5-bis(N-pyrrolidinylmethyl)-4-hydroxyaniline], the minimal effective dose stood at 5 mg/kg in series [1] (setting [3]) and 3.4 mg/kg in series [2] (setting [4]). In addition, the inhibition at 4 µg/mL in the series on Guinea Pig Ileum (setting [5]) came out at 35%.

With `CC(C)N(CCC(C(N)=O)(c1ccccc1)c1ccccn1)C(C)C` (stereo not drawn) [Disopyramide, α[2-(diisopropylamino)-ethyl]α-phenol-2-pyridineacetamide, reference compound], the minimal effective dose in series [1] (iv) was determined as 6.8 mg/kg; in series [2] (iv), 4.4 mg/kg. Besides, the inhibition at 4 µg/mL with Guinea Pig Ileum amounted to 81%. In addition, in the series with cardiac cells, the “anticholinergic activity” value is “indirect anticholinergic actions”. In addition, the “effect on impulse formation, conduction velocity and refractory period of cardiac cells” value in the series with cardiac cells was “depress impulse formation, slow conduction velocity, and increase the duration of the refractory period of cardiac cells”. In the series with patients (setting [6]), the “adverse side-effects in patients” value is “dryness of the mouth, blurred vision, constipation, and urinary retention, and depression of myocardial contractility”.
